According to publication PMC7313537 (PLoS ONE, 2020):

Assays:
Test in all cases: Broader kinase panel (PerkinElmer)
Assay type in all cases: biochemical
Details in all cases: 100 nM; read-out: Average Percent Inhibition
EPHB3 = biological target: T1, EPHB3 (Homo sapiens, UniProt P54753)
T1 construct: purchased In-house HTRF panel (56 kinases) and PerkinElmer (161-kinase panel)
From the text: (§1) […]. […] […].

NEK2 = biological target: T2, NEK2 (Homo sapiens, UniProt P51955)
T2 construct: purchased In-house HTRF panel (56 kinases) and PerkinElmer (161-kinase panel)
From the text: as §1

ABL1(G250E) = biological target: T3, ABL1(G250E) (Homo sapiens, UniProt P00519, G250E)
T3 construct: purchased In-house HTRF panel (56 kinases) and PerkinElmer (161-kinase panel)
From the text: as §1

PKC-theta = biological target: T4, PKC-theta (Homo sapiens, UniProt Q04759)
T4 construct: purchased In-house HTRF panel (56 kinases) and PerkinElmer (161-kinase panel)
From the text: as §1

Yes = biological target: T5, Yes (Homo sapiens, UniProt P07947)
T5 construct: purchased In-house HTRF panel (56 kinases) and PerkinElmer (161-kinase panel)
From the text: as §1

PDGFR-alpha (V561D) = biological target: T6, PDGFR-alpha (V561D) (Homo sapiens, UniProt P16234, V561D)
T6 construct: purchased In-house HTRF panel (56 kinases) and PerkinElmer (161-kinase panel)
From the text: as §1

MSK1 = biological target: T7, MSK1 (Homo sapiens, UniProt O75582)
T7 construct: purchased In-house HTRF panel (56 kinases) and PerkinElmer (161-kinase panel)
From the text: as §1

FGFR3 [K650E] = biological target: T8, FGFR3 [K650E] (Homo sapiens, UniProt P22607, K650E)
T8 construct: purchased In-house HTRF panel (56 kinases) and PerkinElmer (161-kinase panel)
From the text: as §1

RSK3 = biological target: T9, RSK3 (Homo sapiens, UniProt Q15349)
T9 construct: purchased In-house HTRF panel (56 kinases) and PerkinElmer (161-kinase panel)
From the text: as §1

CK1g3 (CSNK1G3) = biological target: T10, CK1g3 (CSNK1G3) (Homo sapiens, UniProt Q9Y6M4)
T10 construct: purchased In-house HTRF panel (56 kinases) and PerkinElmer (161-kinase panel)
From the text: as §1

PRKX = biological target: T11, PRKX (Homo sapiens, UniProt P51817)
T11 construct: purchased In-house HTRF panel (56 kinases) and PerkinElmer (161-kinase panel)
From the text: as §1

PKC-gamma = biological target: T12, PKC-gamma (Homo sapiens, UniProt P05129)
T12 construct: purchased In-house HTRF panel (56 kinases) and PerkinElmer (161-kinase panel)
From the text: as §1

MINK = MINK (Homo sapiens, UniProt Q8N4C8)
From the text: as §1

KDR = KDR (Homo sapiens, UniProt P35968)
From the text: as §1

MARK2 = biological target: T13, MARK2 (Homo sapiens, UniProt Q7KZI7)
T13 construct: purchased In-house HTRF panel (56 kinases) and PerkinElmer (161-kinase panel)
From the text: as §1

Erk1 = biological target: T14, Erk1 (Homo sapiens, UniProt P27361)
T14 construct: purchased In-house HTRF panel (56 kinases) and PerkinElmer (161-kinase panel)
From the text: as §1

ZIPK (DAPK3) = biological target: T15, ZIPK (DAPK3) (Homo sapiens, UniProt O43293)
T15 construct: purchased In-house HTRF panel (56 kinases) and PerkinElmer (161-kinase panel)
From the text: as §1

MST1R = biological target: T16, MST1R (Homo sapiens, UniProt Q04912)
T16 construct: purchased In-house HTRF panel (56 kinases) and PerkinElmer (161-kinase panel)
From the text: as §1

DAPK1 = biological target: T17, DAPK1 (Homo sapiens, UniProt P53355)
T17 construct: purchased In-house HTRF panel (56 kinases) and PerkinElmer (161-kinase panel)
From the text: as §1

ITK = biological target: T18, ITK (Homo sapiens, UniProt Q08881)
T18 construct: purchased In-house HTRF panel (56 kinases) and PerkinElmer (161-kinase panel)
From the text: as §1

IGF1R = IGF1R (Homo sapiens, UniProt P08069)
From the text: as §1

MST2 = biological target: T19, MST2 (Homo sapiens, UniProt Q13188)
T19 construct: purchased In-house HTRF panel (56 kinases) and PerkinElmer (161-kinase panel)
From the text: as §1

EPHB1 = biological target: T20, EPHB1 (Homo sapiens, UniProt P54762)
T20 construct: purchased In-house HTRF panel (56 kinases) and PerkinElmer (161-kinase panel)
From the text: as §1

DDR2 = biological target: T21, DDR2 (Homo sapiens, UniProt Q16832)
T21 construct: purchased In-house HTRF panel (56 kinases) and PerkinElmer (161-kinase panel)
From the text: as §1

MELK = biological target: T22, MELK (Homo sapiens, UniProt Q14680)
T22 construct: purchased In-house HTRF panel (56 kinases) and PerkinElmer (161-kinase panel)
From the text: as §1

PASK = biological target: T23, PASK (Homo sapiens, UniProt Q96RG2)
T23 construct: purchased In-house HTRF panel (56 kinases) and PerkinElmer (161-kinase panel)
From the text: as §1

Abl (T315I) = biological target: T24, Abl (T315I) (Homo sapiens, UniProt P00519, T315I)
T24 construct: purchased In-house HTRF panel (56 kinases) and PerkinElmer (161-kinase panel)
From the text: as §1

LYNB = biological target: T25, LYNB (Homo sapiens, UniProt P07948)
T25 construct: purchased In-house HTRF panel (56 kinases) and PerkinElmer (161-kinase panel)
From the text: as §1

MAPKAPK3 = biological target: T26, MAPKAPK3 (Homo sapiens, UniProt Q16644)
T26 construct: purchased In-house HTRF panel (56 kinases) and PerkinElmer (161-kinase panel)
From the text: as §1

PKC-delta = biological target: T27, PKC-delta (Homo sapiens, UniProt Q05655)
T27 construct: purchased In-house HTRF panel (56 kinases) and PerkinElmer (161-kinase panel)
From the text: as §1

FES = biological target: T28, FES (Homo sapiens, UniProt P07332)
T28 construct: purchased In-house HTRF panel (56 kinases) and PerkinElmer (161-kinase panel)
From the text: as §1

PAK3 = biological target: T29, PAK3 (Homo sapiens, UniProt O75914)
T29 construct: purchased In-house HTRF panel (56 kinases) and PerkinElmer (161-kinase panel)
From the text: as §1

MNK1 (MKNK1) = biological target: T30, MNK1 (MKNK1) (Homo sapiens, UniProt Q9BUB5)
T30 construct: purchased In-house HTRF panel (56 kinases) and PerkinElmer (161-kinase panel)
From the text: as §1

PKD3 = biological target: T31, PKD3 (Homo sapiens, UniProt O94806)
T31 construct: purchased In-house HTRF panel (56 kinases) and PerkinElmer (161-kinase panel)
From the text: as §1

PKD1 = biological target: T32, PKD1 (Homo sapiens, UniProt Q15139)
T32 construct: purchased In-house HTRF panel (56 kinases) and PerkinElmer (161-kinase panel)
From the text: as §1

RSK2 = RSK2 (Homo sapiens, UniProt P51812)
From the text: as §1

HIPK2 = biological target: T33, HIPK2 (Homo sapiens, UniProt Q9H2X6)
T33 construct: purchased In-house HTRF panel (56 kinases) and PerkinElmer (161-kinase panel)
From the text: as §1

GSK3-alpha = biological target: T34, GSK3-alpha (Homo sapiens, UniProt P49840)
T34 construct: purchased In-house HTRF panel (56 kinases) and PerkinElmer (161-kinase panel)
From the text: as §1

Ca MKII_beta = biological target: T35, Ca MKII_beta (Homo sapiens, UniProt Q13554)
T35 construct: purchased In-house HTRF panel (56 kinases) and PerkinElmer (161-kinase panel)
From the text: as §1

NEK1 = biological target: T36, NEK1 (Homo sapiens, UniProt Q96PY6)
T36 construct: purchased In-house HTRF panel (56 kinases) and PerkinElmer (161-kinase panel)
From the text: as §1

NTRK2 (TRKB) = biological target: T37, NTRK2 (TRKB) (Homo sapiens, UniProt Q16620)
T37 construct: purchased In-house HTRF panel (56 kinases) and PerkinElmer (161-kinase panel)
From the text: as §1

p38-delta = biological target: T38, p38-delta (Homo sapiens, UniProt O15264)
T38 construct: purchased In-house HTRF panel (56 kinases) and PerkinElmer (161-kinase panel)
From the text: as §1

IRAK4 = biological target: T39, IRAK4 (Homo sapiens, UniProt Q9NWZ3)
T39 construct: purchased In-house HTRF panel (56 kinases) and PerkinElmer (161-kinase panel)
From the text: as §1

T11 sequence (P51817 whole entry): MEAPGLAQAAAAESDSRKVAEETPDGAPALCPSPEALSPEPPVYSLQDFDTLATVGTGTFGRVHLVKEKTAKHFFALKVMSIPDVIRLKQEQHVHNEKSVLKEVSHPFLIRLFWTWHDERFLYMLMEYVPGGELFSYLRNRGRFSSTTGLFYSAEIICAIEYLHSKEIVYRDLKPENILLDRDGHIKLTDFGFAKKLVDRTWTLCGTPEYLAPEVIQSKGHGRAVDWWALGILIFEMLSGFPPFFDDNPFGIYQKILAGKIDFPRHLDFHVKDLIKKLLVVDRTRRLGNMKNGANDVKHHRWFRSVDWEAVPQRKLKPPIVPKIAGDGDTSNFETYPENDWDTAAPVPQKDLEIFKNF
IGF1R, sequence (P08069 31-1367, species assumed): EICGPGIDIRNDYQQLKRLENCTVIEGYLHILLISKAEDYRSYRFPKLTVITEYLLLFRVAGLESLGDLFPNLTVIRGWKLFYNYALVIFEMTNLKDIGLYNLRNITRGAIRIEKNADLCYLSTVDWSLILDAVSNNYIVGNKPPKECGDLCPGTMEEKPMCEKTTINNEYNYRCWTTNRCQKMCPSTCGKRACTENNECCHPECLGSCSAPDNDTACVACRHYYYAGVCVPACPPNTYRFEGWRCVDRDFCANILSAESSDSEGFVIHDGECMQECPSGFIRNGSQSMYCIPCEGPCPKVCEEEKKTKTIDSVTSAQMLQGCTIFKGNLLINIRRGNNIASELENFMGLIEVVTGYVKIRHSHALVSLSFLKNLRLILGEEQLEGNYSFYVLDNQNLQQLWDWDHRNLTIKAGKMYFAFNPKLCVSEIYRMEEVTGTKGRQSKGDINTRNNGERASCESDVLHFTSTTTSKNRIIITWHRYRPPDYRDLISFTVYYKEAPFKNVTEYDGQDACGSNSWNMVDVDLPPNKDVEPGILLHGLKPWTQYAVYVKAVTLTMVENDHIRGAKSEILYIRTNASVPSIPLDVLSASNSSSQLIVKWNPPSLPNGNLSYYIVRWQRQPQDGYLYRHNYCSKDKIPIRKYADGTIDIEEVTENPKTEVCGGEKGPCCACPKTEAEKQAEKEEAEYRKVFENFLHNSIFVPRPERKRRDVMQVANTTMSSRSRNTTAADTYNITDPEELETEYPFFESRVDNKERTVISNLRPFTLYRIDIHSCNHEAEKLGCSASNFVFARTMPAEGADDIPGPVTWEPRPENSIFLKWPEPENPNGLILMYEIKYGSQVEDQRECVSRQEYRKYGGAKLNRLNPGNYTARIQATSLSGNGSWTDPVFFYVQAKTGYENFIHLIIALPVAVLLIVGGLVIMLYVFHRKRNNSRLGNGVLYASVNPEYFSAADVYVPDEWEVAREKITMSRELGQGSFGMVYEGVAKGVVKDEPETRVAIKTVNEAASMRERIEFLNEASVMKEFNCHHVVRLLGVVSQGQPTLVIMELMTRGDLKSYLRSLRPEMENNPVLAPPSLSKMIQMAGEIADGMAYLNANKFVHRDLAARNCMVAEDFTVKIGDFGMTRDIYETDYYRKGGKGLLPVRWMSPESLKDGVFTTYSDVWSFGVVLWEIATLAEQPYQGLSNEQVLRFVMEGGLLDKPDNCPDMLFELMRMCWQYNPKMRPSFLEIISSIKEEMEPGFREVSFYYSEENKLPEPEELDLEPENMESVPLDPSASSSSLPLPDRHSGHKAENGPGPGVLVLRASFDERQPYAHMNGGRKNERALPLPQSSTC
T1 sequence (P54753 34-998): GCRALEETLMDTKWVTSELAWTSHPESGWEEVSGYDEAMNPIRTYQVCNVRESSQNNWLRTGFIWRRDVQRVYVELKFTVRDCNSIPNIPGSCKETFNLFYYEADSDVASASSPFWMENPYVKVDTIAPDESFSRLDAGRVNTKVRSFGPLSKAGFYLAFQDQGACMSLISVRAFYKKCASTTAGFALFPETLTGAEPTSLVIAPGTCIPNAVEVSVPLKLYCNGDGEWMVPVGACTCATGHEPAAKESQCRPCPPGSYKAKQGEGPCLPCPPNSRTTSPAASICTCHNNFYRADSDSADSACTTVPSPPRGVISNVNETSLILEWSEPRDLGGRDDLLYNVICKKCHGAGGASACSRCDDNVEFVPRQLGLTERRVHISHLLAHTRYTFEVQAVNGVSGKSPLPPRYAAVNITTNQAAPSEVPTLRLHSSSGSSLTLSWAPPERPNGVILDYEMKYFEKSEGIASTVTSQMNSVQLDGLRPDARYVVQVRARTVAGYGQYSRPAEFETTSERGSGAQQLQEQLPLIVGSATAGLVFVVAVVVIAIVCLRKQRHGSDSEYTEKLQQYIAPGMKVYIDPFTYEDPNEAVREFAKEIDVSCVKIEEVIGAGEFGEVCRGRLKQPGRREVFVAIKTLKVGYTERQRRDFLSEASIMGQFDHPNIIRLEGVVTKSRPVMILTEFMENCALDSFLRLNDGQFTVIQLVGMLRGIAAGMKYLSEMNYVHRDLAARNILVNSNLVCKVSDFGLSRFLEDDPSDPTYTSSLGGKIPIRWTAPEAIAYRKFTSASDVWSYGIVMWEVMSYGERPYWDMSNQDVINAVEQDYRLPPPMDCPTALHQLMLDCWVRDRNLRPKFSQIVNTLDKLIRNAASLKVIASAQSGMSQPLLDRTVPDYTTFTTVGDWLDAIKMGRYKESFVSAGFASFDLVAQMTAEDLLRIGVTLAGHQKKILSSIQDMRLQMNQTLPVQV
T26 sequence (Q16644 whole entry): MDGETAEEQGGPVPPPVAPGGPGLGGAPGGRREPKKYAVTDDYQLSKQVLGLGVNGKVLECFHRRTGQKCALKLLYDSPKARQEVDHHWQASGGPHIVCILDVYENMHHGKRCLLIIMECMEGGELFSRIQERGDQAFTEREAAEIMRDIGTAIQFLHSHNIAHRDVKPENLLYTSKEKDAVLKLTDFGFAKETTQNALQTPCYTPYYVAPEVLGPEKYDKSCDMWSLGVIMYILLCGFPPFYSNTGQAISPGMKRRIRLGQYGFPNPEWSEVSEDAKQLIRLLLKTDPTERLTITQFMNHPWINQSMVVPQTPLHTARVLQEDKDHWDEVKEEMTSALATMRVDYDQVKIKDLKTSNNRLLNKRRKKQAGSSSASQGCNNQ
T6 sequence (P16234 24-1089 V561D): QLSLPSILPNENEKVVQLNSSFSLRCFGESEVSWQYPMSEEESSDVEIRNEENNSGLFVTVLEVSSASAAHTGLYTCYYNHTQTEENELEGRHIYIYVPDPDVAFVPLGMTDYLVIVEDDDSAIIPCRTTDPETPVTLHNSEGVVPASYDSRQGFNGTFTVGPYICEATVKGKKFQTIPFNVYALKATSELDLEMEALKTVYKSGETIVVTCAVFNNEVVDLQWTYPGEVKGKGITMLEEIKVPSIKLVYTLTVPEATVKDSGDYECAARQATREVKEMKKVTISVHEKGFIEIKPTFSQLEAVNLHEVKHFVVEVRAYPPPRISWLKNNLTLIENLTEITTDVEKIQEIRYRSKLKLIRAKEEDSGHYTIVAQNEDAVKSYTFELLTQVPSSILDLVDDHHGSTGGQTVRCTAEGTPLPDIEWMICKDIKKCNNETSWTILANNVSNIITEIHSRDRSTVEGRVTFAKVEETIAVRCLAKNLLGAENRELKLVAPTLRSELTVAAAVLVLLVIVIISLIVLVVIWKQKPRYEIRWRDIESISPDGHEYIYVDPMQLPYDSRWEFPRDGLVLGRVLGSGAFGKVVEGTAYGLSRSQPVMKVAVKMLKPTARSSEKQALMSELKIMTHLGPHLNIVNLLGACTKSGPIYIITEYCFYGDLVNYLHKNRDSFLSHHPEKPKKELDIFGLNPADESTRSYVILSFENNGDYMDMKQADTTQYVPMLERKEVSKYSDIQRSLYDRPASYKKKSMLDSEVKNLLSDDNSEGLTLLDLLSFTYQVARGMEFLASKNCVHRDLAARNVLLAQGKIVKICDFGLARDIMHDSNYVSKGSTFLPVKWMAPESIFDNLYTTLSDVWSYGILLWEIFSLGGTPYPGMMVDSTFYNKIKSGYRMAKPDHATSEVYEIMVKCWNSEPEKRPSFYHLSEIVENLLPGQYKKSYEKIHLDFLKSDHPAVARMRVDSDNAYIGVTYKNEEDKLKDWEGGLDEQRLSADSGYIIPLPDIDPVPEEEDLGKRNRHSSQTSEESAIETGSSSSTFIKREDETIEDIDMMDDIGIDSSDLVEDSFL
T10 sequence (Q9Y6M4 whole entry): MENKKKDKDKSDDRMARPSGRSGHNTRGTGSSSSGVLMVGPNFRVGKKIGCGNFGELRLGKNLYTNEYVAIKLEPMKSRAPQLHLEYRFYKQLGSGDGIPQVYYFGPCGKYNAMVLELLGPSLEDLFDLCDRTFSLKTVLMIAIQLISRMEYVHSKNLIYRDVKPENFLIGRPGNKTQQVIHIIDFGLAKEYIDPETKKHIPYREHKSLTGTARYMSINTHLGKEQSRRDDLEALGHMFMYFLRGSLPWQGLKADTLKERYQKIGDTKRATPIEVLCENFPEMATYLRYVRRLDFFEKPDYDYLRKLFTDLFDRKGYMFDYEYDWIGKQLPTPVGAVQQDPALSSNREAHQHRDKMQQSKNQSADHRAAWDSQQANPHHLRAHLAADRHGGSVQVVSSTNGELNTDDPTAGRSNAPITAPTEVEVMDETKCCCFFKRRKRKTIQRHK
T30 sequence (Q9BUB5 whole entry): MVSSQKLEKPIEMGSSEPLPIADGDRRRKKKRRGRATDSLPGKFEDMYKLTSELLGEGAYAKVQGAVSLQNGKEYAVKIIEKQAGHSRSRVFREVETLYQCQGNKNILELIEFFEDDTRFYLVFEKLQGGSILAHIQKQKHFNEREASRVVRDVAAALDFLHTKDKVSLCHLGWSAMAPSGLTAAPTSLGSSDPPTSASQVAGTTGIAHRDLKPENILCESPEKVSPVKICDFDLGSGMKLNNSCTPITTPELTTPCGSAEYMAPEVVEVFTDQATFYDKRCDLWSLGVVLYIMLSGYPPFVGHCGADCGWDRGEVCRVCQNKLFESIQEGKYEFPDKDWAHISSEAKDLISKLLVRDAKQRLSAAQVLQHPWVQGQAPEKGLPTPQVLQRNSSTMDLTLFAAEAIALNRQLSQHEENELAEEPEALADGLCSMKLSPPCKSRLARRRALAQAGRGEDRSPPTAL

## CCN1C(=O)N(c2c(F)c(OC)cc(OC)c2F)Cc2cnc3[nH]c(CN4CCOCC4)cc3c21 [INCB054828, pemigatinib]
EPHB3
  inhibition at 0.1 µM: 0%
NEK2
  inhibition at 0.1 µM: -4%
ABL1(G250E)
  inhibition at 0.1 µM: 1%
PKC-theta
  inhibition at 0.1 µM: 2%
Yes
  inhibition at 0.1 µM: 3%
PDGFR-alpha (V561D)
  inhibition at 0.1 µM: 1%
MSK1
  inhibition at 0.1 µM: 1%
FGFR3 [K650E]
  inhibition at 0.1 µM: 84%
RSK3
  inhibition at 0.1 µM: -3%
CK1g3 (CSNK1G3)
  inhibition at 0.1 µM: 0%
PRKX
  inhibition at 0.1 µM: 0%
PKC-gamma
  inhibition at 0.1 µM: 7%
MINK
  inhibition at 0.1 µM: 2%
KDR
  inhibition at 0.1 µM: 45%
MARK2
  inhibition at 0.1 µM: 5%
Erk1
  inhibition at 0.1 µM: 1%
ZIPK (DAPK3)
  inhibition at 0.1 µM: 7%
MST1R
  inhibition at 0.1 µM: 1%
DAPK1
  inhibition at 0.1 µM: 1%
ITK
  inhibition at 0.1 µM: 2%
IGF1R
  inhibition at 0.1 µM: 1%
MST2
  inhibition at 0.1 µM: 3%
EPHB1
  inhibition at 0.1 µM: 0%
DDR2
  inhibition at 0.1 µM: -1%
MELK
  inhibition at 0.1 µM: 2%
PASK
  inhibition at 0.1 µM: -7%
Abl (T315I)
  inhibition at 0.1 µM: 2%
LYNB
  inhibition at 0.1 µM: 9%
MAPKAPK3
  inhibition at 0.1 µM: 1%
PKC-delta
  inhibition at 0.1 µM: 9%
FES
  inhibition at 0.1 µM: -11%
PAK3
  inhibition at 0.1 µM: -2%
MNK1 (MKNK1)
  inhibition at 0.1 µM: 6%
PKD3
  inhibition at 0.1 µM: 0%
PKD1
  inhibition at 0.1 µM: -3%
RSK2
  inhibition at 0.1 µM: -2%
HIPK2
  inhibition at 0.1 µM: -1%
GSK3-alpha
  inhibition at 0.1 µM: 2%
Ca MKII_beta
  inhibition at 0.1 µM: -9%
NEK1
  inhibition at 0.1 µM: 1%
NTRK2 (TRKB)
  inhibition at 0.1 µM: 1%
p38-delta
  inhibition at 0.1 µM: 2%
IRAK4
  inhibition at 0.1 µM: 0%
